Our source for the Activity and bioavailability values is ChEMBL document CHEMBL3880397, “Glucopyranosyloxypyrazole derivatives and use thereof in medicines” (2004).

For orientation: bioavailability means dose-corrected exposure relative to a reference, in per cent.

Series [1] concerns Rattus norvegicus. Put plainly: Reduction in urinary glucose excretion in overnight fasted Sprague-Dawley rat assessed as urinary glucose concentration per 200 g of body weight per 24 hours at 10 /kg, po. The format is functional.
The subject of series [2] is Rattus norvegicus. In words: Reduction in urinary glucose excretion in overnight fasted Sprague-Dawley rat assessed as urinary glucose concentration per 200 g of body weight per 24 hours at 3 mg/kg, po. Type of series: functional.
Series [3] has as its system Rattus norvegicus. In words: Reduction in urinary glucose excretion in overnight fasted Sprague-Dawley rat assessed as urinary glucose concentration per 200 g of body weight per 24 hours at 1 mg/kg, po. The format is functional.
The nature of series [4]: Oral bioavailability in Sprague-Dawley rat at 10 mg/kg after 15 to 240 mins by LC-MS/MS method. The format is ADME, organism-based. Conditions: in vivo.
Series [5] in a line: Oral bioavailability in Sprague-Dawley rat at 10 mg/kg after 15 to 240 mins by HPLC method. Type of series: ADME, organism-based. The settings on record: in vivo.
Series [6] is described as follows: Toxicity in ICR mouse assessed as induction of mouse mortality by measuring death incidence at 2000 mg/kg, po measured up to 24 hrs post dose. Type of series: organism-based. Conditions: in vivo.

`CCOC(=O)OC[C@H]1O[C@@H](Oc2nn(C(C)C)c(C)c2Cc2ccc(OC(C)C)cc2)[C@H](O)[C@@H](O)[C@@H]1O` [REMOGLIFLOZIN ETABONATE]: the Activity in the series with Rattus norvegicus [1] turned out to be 127.5 mg; with Rattus norvegicus [2] it was 28.3 mg; in the series with Rattus norvegicus [3], 1.6 mg. In series [4], this molecule showed a bioavailability of 27%.
Consider `Cc1[nH]nc(O[C@@H]2O[C@H](CO)[C@@H](O)[C@H](O)[C@H]2O)c1Cc1ccc(C(C)C)cc1`, for which the bioavailability in series [5] came to 15%.
In turn, `CSc1ccc(Cc2c(O[C@@H]3O[C@H](CO)[C@@H](O)[C@H](O)[C@H]3O)n[nH]c2C(F)(F)F)cc1` came in with a bioavailability in series [5] of 11%. In addition, the Activity entry in series [6] is recorded as “Non-Toxic”.
Molecule `Cc1[nH]nc(O[C@@H]2O[C@H](CO)[C@@H](O)[C@H](O)[C@H]2O)c1Cc1ccc(OC(C)C)cc1` gave a bioavailability in series [5] of 0%.
Turning to `COC(=O)OC[C@H]1O[C@@H](Oc2nn(C(C)C)c(C)c2Cc2ccc(OC(C)C)cc2)[C@H](O)[C@@H](O)[C@@H]1O`, the Activity turned out to be 167.3 mg in the series on Rattus norvegicus [1], 36.8 mg in the series with Rattus norvegicus [2] and 1.7 mg with Rattus norvegicus [3]. In addition, in series [4], the bioavailability is 27%.
Regarding `Cc1c(Cc2ccc(OC(C)C)cc2)c(O[C@@H]2O[C@H](COC(=O)OCC(C)C)[C@@H](O)[C@H](O)[C@H]2O)nn1C(C)C`, the bioavailability in series [4] came to 32%.
